# Test results taken from patent US20080070971A1, “Medical Use of Bilirubin and its Structural Analogues” (priority 2006, published 2008).
# Where two headings read alike, the source gives them in different places.
# Key:
# UDPGT1A1 = target: T1, UDPGT1A1 (Homo sapiens, UniProt P22309); experiment: Inhibition of bilirubin glucuronidation by UDPGT; assay type: biochemical
# T1 construct: purchased SigmaAldrich U7254
# T1 sequence (P22309 26-533): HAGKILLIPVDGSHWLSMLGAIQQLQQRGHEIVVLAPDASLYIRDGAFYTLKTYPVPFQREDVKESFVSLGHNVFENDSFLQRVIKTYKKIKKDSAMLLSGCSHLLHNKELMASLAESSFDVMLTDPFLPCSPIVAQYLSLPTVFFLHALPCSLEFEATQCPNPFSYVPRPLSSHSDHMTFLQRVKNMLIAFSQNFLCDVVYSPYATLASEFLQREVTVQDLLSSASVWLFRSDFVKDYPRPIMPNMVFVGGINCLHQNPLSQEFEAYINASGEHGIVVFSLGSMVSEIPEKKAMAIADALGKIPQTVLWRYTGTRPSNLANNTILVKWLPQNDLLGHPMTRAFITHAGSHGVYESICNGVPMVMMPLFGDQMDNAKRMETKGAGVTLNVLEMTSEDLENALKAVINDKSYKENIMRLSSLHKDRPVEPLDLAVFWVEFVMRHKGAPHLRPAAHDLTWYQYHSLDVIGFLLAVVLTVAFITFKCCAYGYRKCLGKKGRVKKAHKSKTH
# Excerpt: UDP-glucuronosyltransferase 1A1 isozenzyme (Cat. #U7254), uridine-5′-diphosphoglucuronic acid (UDPGA, #U5625), bilirubin (B), naringenin (N5893), octyl gallate (#48700) and quercetin (Q0125) were purchased from SigmaAldrich (St. Louis, Mo.). Bilirubin dimethyl ester (#B612-9), biliverdin dimethyl ester (#B610-9), biliverdin hydrocholoride (#B655-9), mesobilirubin (#M588-9), urobilin hydrochloride (#U590-1), and stercobilin hydrochloride (#S594-9) were purchased from Frontier Scientific Inc. (Logan, Utah).
# The enzyme activity assay method was based on those of Adlard and Lathe (Biochem. J., 1970, 119:437-445). Incubation mixtures (total vol. 1.25 ml, pH 7.9) were prepared in tubes kept in ice and had the following composition: bilirubin (0.1 mM), UDP-glucuronic acid (0.25 mM), serum (5.8%, v/v), Mg2+ (5.0 mM), microsomal preparation (0.5-1.5 mg of protein), 10 mM tris-0.14 M KCl (pH 8.0), and 10% (v/v) dimethylsulphoxide. Incubation (10 min, 37° C.) was carried out with shaking (100 cycles/min). After incubation, tubes were placed in ice-water (5 min) and direct-reacting bilirubin was determined. All incubations were done in duplicate. Enzyme activity was expressed as μg of bilirubin conjugated/h per mg of protein. Differences from controls of more than 10% were regarded as significant.
# HMG-CoA reductase = target: T2, HMG-CoA reductase (Homo sapiens, UniProt P04035); experiment: HMG-CoA reductase assay in liver microsomes; assay type: biochemical; conditions: moderately high concentrations; 30 mg/L (FIG. 6)
# T2 construct: from tissue; host or cells: liver microsomes
# T2 sequence (P04035 1-888): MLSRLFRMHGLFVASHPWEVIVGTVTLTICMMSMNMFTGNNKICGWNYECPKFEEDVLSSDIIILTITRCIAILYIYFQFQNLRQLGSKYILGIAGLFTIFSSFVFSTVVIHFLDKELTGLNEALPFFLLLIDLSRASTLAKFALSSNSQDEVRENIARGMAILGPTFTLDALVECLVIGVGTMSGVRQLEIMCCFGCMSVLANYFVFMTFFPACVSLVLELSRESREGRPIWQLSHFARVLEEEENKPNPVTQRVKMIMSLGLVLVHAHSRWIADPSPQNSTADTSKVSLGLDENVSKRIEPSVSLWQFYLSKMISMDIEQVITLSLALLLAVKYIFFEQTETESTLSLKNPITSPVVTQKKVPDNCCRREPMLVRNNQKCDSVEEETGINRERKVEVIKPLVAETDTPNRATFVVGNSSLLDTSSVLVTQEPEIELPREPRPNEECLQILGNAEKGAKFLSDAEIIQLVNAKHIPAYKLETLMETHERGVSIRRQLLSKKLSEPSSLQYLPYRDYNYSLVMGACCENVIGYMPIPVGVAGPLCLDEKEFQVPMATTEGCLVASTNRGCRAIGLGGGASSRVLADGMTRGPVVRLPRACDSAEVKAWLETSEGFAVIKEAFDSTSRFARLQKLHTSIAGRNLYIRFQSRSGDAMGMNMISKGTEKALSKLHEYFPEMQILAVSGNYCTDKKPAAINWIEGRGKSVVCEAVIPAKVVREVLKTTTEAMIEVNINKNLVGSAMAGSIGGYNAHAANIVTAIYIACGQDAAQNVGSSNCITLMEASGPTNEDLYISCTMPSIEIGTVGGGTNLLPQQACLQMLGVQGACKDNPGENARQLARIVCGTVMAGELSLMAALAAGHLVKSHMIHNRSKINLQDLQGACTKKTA
# Experimental: Liver microsomes, which are used to investigate cholesterol metabolism, were prepared as follows. Liver was homogenized in 50 mM Tris HCl buffer (pH 7.4), containing 0.3 M sucrose, 10 mM DTT, and 10 mM EDTA. The homogenate was centrifuged at 20,000×g for 15 min, and the supernatant was centrifuged at 100,000×g for 60 min. The resulting microsomal fraction was suspended in 3 ml of 0.1 M potassium phosphate buffer (pH 7.4), containing 1 mM EDTA and 5 mM DTT. Aliquots were immediately frozen in liquid nitrogen and stored at −20° C. until analysis.
# Assay of HMG-CoA reductase. Microsomal suspensions of […], containing 5 mg protein, were preincubated for 5 min at 37° C. with […] of 0.1 M potassium phosphate buffer (pH 7.4), containing 1 mM EDTA and 12 mM glucose-6-phosphate. The assay was initiated by adding […] of cofactor-substrate solution (0.1 mM HMG-CoA, 3 mM MADPH, and 2 U/ml glucose-6-phosphate dehydrogenase). The incubation was performed at 37+ C. for 30 min and was terminated by the addition of […] of 1 M MaOH. After lactonization, the mevalonolactone was separated by thin layer chromatography. The eluate, which contained mevalonolactone, was collected in a scintillation vial. The radioactivity was then counted in a Packard 3320 scintillation spectrometer.
# cyclooxygenase (COX) = experiment: Cyclooxygenase (COX) inhibition; assay type: biochemical, human; conditions: concentration of 10 mg/L (FIG. 4)
# Experimental: The activity of COX was determined by the procedure described in Assay Design's Enzyme Immunometric Assay (EIA) kit (Assay Design Inc., TiterZyme EIA cat.#900-094). Briefly, the kit uses a monoclonal antibody to human COX-II immobilized on a microtiter plate to bind the human COX in the standard or sample. After a short incubation the excess standard or sample is washed out and a rabbit polyclonal antibody to human COX labeled with the enzyme. Horseradish peroxidase is added. This labeled antibody binds to the human COX captured on the plate. After a short incubation the excess labeled antibody is washed out and substrate is added. The substrate reacts with the labeled antibody bound to the human COX captured on the plate. After a short incubation, the enzyme reaction is stopped and the color generated is read at 450 nm. The measured optical density is directly proportional to the concentration of human COX.
# Purified cyclooxygenases (COX) were obtained from Kayman Chemical Company and used to examine the inhibitory effect of bilirubin with arachidonic acid as the substrate. High purity of bilirubin (SigmaAldrich #B4126), biliverdin (Frontier Scientific Inc., Cat. B655-9) and hemin (SigmaAldrich, #51280) were used as received.
# [1] = Table 4, bilirubin 0.1 mM as substrate, read-out: Apparent Ki
# [2] = read-out: inhibition constant (Ki)
Compound,Ki (UDPGT1A1; [1]) [µM],further results
C=CC1=C(C)/C(=C/c2[nH]c(Cc3[nH]c(/C=C4\NC(=O)C(C=C)=C4C)c(C)c3CCC(=O)O)c(CCC(=O)O)c2C)NC1=O [Bilirubin IIIα],1.5,
C=CC1=C(C)C(OC)N/C1=C\c1[nH]c(Cc2[nH]c(/C=C3\NC(OC)C(C=C)=C3C)c(C)c2CCC(=O)O)c(CCC(=O)O)c1C (stereo not shown) [DimethoxybilirubinIXα],1.3,Ki (UDPGT1A1; [2]): ~1 µM
CCCCCCCCOC(=O)c1cc(O)c(O)c(O)c1 [Octyl gallate ester],7.6,
"(±)-2,3-Dihydro-5,7-dihydroxy-2-(4-hydroxyphenyl)-4H-1-benzopyran-4-one; 4′,5,7-Trihydroxyflavanone [Naringenin]",4.8,Ki (UDPGT1A1; [2]): 5 µM; IC50 (UDPGT1A1; under the testing conditions): ~16 µM
"C=CC1=C(C)c2cc3[n-]c(cc4[n-]c(cc5nc(cc1n2)C(C)=C5C=C)c(C)c4CCC(=O)O)c(CCC(=O)O)c3C.O.[Fe+2] [Hematin, reference compound]",,inhibition of HMG-CoA reductase activity (comparison) (HMG-CoA reductase): strongly inhibit
C=CC1=C(C)C(=O)N/C1=C\c1[nH]c(Cc2[nH]c(/C=C3\NC(=O)C(C)=C3C=C)c(C)c2CCC(=O)O)c(CCC(=O)O)c1C [Bilirubin XIIIα],1.7,
hemin,,reducing COX activity (comparison) (cyclooxygenase (COX)): effective in reducing COX activity
"CCC1=C(C)/C(=C/c2[nH]c(Cc3[nH]c(/C=C4\NC(=O)C(C)=C4CC)c(C)c3CCC(=O)O)c(CCC(=O)O)c2C)NC1=O [Mesobilirubin IXα, 3,18-diethyl-2,7,13,17-tetramethyl-1,19-dioxo-1,19,22,24-tetrahydro-21H-biline-8,12-dipropanoic acid]",2.3,
"C=CC1=C(C)/C(=C/C2=NC(=C/c3[nH]c(/C=C4\NC(=O)C(C)=C4C=C)c(C)c3CCC(=O)O)/C(CCC(=O)O)=C2C)NC1=O [biliverdin, 2,7,13,17-tetramethyl-1,19-dioxo-3,18-divinyl-1,19,22,24-tetrahydro-21H-biline-8,12-dipropanoic acid]",19.9,inhibition of HMG-CoA reductase activity (comparison) (HMG-CoA reductase): strongly inhibit
